One series concerns Farage. Kind of series: CellTiter-Glow Luminescent Cell Viability assay, Farage (lymphoma). The class given is cell-based. Conditions: 72 h, absolute IC50 (T/C=50%), read-out: IC50 against Farage. As for the experimental part:
(§1) Antitumor activity of the compounds and doxorubicin as a positive control was assessed by using the CellTiter-Glow® Luminescent Cell Viability assay (Promega #G7572) according to the manufacturer's instructions. The compounds were tested at 5 or 6 concentrations in half-log increments (highest concentration 30 μM or 100 μM) in duplicate or triplicate well conditions.
(§2) Tumor cells were grown at 37° C. in a humidified atmosphere with 5% CO2 in RPMI 1640 or DMEM medium, supplemented with 10% (v/v) fetal calf serum and 50 μg/ml gentamicin for up to 20 passages, and were passaged once or twice weekly. Cells were harvested using TrypLE or PBS buffer containing 1 mM EDTA, and the percentage of viable cells was determined using a CASY Model TI cell counter (OMNI Life Science). Cells were harvested from exponential phase cultures, counted and plated in 96 well flat-bottom microtiter plates at a cell density depending on the cell line's growth rate (4,000-20,000 cells/well depending on the cell line's growth rate, up to 60,000 for hematological cancer cell lines) in RPMI 1640 or DMEM medium supplemented with 10% (v/v) fetal calf serum and 50 μg/ml gentamicin (140 μl/well). […] Viability of cells was quantified by or CellTiter-Glow® Luminescent Cell Viability assay (Promega #G7572). Luminescence was measured with a microplate luminometer (Promega or PerkinElmer. […]

The test system of the next series is A375. Kind of series: CellTiter-Glow Luminescent Cell Viability assay, A375 (melanoma). The class given is cell-based. The following applies: Homo sapiens, A-375, 72 h, absolute IC50 (T/C=50%), read-out: IC50 against A375. As for the experimental part: as §1, §2
Another series concerns A2058. Kind of series: CellTiter-Glow Luminescent Cell Viability assay, A2058 (melanoma). Conditions: Homo sapiens, 72 h, absolute IC50 (T/C=50%), read-out: IC50 against A2058. Format: cell-based. The procedure: as §1, §2
Series [1] in a line: In vivo tolerability, maximum tolerated dose in nude mice. The procedure: To assess the toxicity of the test compounds in vivo and to determine the maximum tolerated dose 4 BALB/c Nude male mice, 4-9 weeks old were injected intraperitoneally (i.p) with various doses of the drug or vehicle 2.5% DMSO/5% EtOH/20% PEG200 in saline. The volume of the injection was 5 ml/kg. The administered doses were confirmed by LC-UV or LC-MS/MS.
Mice were monitored for body weight before each injection and twice a day for clinical signs of toxicity.
All procedures related to animal handling, care and the treatment in the study were performed according to the guidelines of the Association for Assessment and Accreditation of Laboratory Animal Care (AAALAC).
In order to assess the in vivo toxicity of SND350 various doses of the drug were administered either as a single dose or repeat doses into nude mice.

Another series concerns U937. The series is described as follows: CellTiter-Glow Luminescent Cell Viability assay, U937 (lymphoma). Conditions: Homo sapiens, U-937, 72 h, absolute IC50 (T/C=50%), read-out: IC50 against U937. Format: cell-based. The procedure: as §1, §2
The test system of series [2] is breast and colon carcinomas, lymphoma and melanoma cancer cell growth. Kind of series: CellTiter-Glow cell viability assay, cancer cell line panel (summary statement). The class given is cell-based. The following applies: lymphoma and melanoma cell lines of Table 2, read-out: IC50s, cancer cell growth inhibition. The procedure: as §1, §2
For the next series, the system named is KM12. Kind of series: CellTiter-Glow Luminescent Cell Viability assay, KM12 (colon). The class given is cell-based. The following applies: Homo sapiens, 72 h, absolute IC50 (T/C=50%), read-out: IC50 against KM12. As for the experimental part: as §1, §2
A further series deals with SK-Mel-5. The series is described as follows: CellTiter-Glow Luminescent Cell Viability assay, SK-Mel-5 (melanoma). The class given is cell-based. The following applies: Homo sapiens, 72 h, absolute IC50 (T/C=50%), read-out: IC50 against SK-Mel-5. The procedure: as §1, §2
For the next series, the system named is MDA-MB-468. Kind of series: CellTiter-Glow Luminescent Cell Viability assay, MDA-MB-468 (breast). The following applies: Homo sapiens, 72 h, absolute IC50 (T/C=50%), read-out: IC50 against MDA-MB-468. The class given is cell-based. As for the experimental part:
as §1, §2

For `COc1c(O)cc(O)c2c(=O)cc(-c3ccc(CCCCC[P+](c4ccccc4)(c4ccccc4)c4ccccc4)cc3)oc12.[Br-]` [SND350, (5-(4-(5,7-dihydroxy-8-methoxy-4-oxo-4H-chromen-2-yl)phenyl)pentyl)triphenylphosphonium bromide], the IC50 in the series with Farage is 800 nM; in the series on A375, 8900 nM; with A2058, 6500 nM; in the series with U937 it was 2900 nM; in series [2] it was less than 10000 nM; in the series on KM12, 2800 nM. The IC50 with SK-Mel-5 is 2100 nM; in the series on MDA-MB-468 it was 2800 nM. In addition, the “tolerability of multiple administrations” value in series [1] (i.p., qod for a total of 7 injections, 10 mg/kg/inj) is listed as “well tolerated”. In [1] (male, BALB/c Nude, mouse, in vivo, ip, single i.p. administration), this compound displayed an MTD of 40 mg/kg.

For the origin of these results see US20240101585A1, “HETEROAROMATIC PHOSPHONIUM SALTS AND THEIR USE TREATING CANCER” (FLORATEK PHARMA AG, priority 2021, published 2024).
